Each structure is given as a SMILES string.

The test has as its system transgenic mice that express both human CETP and human apolipoprotein A-1. The experiment in a line: In vivo assay of plasma lipids: elevation of HDL cholesterol. As to conditions: Mus musculus; single oral dose 30 mg/kg; HDL cholesterol in serum at 8 hr after administration; relative to a control; read-out: % HDL cholesterol increase. The text has this:
Additional serum lipids can be analyzed by enzymatic methods.
Take `CCC(CC)OC(=O)N1CCC[C@H](N(Cc2cc(C(F)(F)F)cc(C(F)(F)F)c2)c2nnn(C)n2)c2cc(C)c(C(F)(F)F)cc21` [Example 18, (S)-5-[(3,5-Bis-trifluoromethyl-benzyl)-(2-methyl-2H-tetrazol-5-yl)-amino]-7-methyl-8-trifluoromethyl-2,3,4,5-tetrahydro-benzo[b]azepine-1-carboxylic acid 1-ethyl-propyl ester]: the change in vivo at 30 mg/kg amounted to 105%.
Regarding `Cc1cc2c(cc1C(F)(F)F)N(C(=O)OC(C)C)CCC[C@@H]2N(Cc1cc(C(F)(F)F)cc(C(F)(F)F)c1)c1nnn(C)n1` [Example 16, (S)-5-[(3,5-Bis-trifluoromethyl-benzyl)-(2-methyl-2H-tetrazol-5-yl)-amino]-7-methyl-8-trifluoromethyl-2,3,4,5-tetrahydro-benzo[b]azepine-1-carboxylic acid isopropyl ester], the change in vivo at 30 mg/kg was 82%.
In the case of `Cc1cc2c(c(C)c1C(F)(F)F)N(Cc1ccncc1)CCC[C@@H]2N(Cc1cc(C(F)(F)F)cc(C(F)(F)F)c1)c1nnn(C)n1` [Example 151, (S)-(3,5-Bis-trifluoromethyl-benzyl)-(7,9-dimethyl-1-pyridin-4-ylmethyl-8-trifluoromethyl-2,3,4,5-tetrahydro-1H-benzo[b]azepin-5-yl)-(2-methyl-2H-tetrazol-5-yl)-amine] it was 165%.
In the case of `Cc1cc2c(c(C)c1C(F)(F)F)N(CC1CC1)CCC[C@@H]2N(Cc1cc(C(F)(F)F)cc(C(F)(F)F)c1)c1nnn(C)n1` [Example 148, (S)-(3,5-Bis-trifluoromethyl-benzyl)-(1-cyclopropylmethyl-7,9-dimethyl-8-trifluoromethyl-2,3,4,5-tetrahydro-1H-benzo[b]azepin-5-yl)-(2-methyl-2H-tetrazol-5-yl)-amine] it was 224%; in that of `Cc1cc2c(cc1C(F)(F)F)N(C(=O)OC(C)(C)C)CCC[C@@H]2N(Cc1cc(Cl)cc(C(F)(F)F)c1)c1nnn(C)n1` [Example 185, (S)-5-[(3-Chloro-5-trifluoromethyl-benzyl)-(2-methyl-2H-tetrazol-5-yl)-amino]-7-methyl-8-trifluoromethyl-2,3,4,5-tetrahydro-benzo[b]azepine-1-carboxylic acid tert-butyl ester], 155%.
With `Cc1cc2c(cc1C(F)(F)F)N(CC1CCCC1)CCC[C@@H]2N(Cc1cc(C(F)(F)F)cc(C(F)(F)F)c1)c1nnn(CCO)n1` [Example 27, (S)-2-{5-[(3,5-Bis-trifluoromethyl-benzyl)-(1-cyclopentylmethyl-7-methyl-8-trifluoromethyl-2,3,4,5-tetrahydro-1H-benzo[b]azepin-5-yl)-amino]-tetrazol-2-yl}-ethanol], the change in vivo at 30 mg/kg amounted to 128%.
For `Cc1cc2c(cc1C(F)(F)F)N(Cc1ccncc1)CCC[C@@H]2N(Cc1cc(Cl)cc(Cl)c1)c1nnn(C)n1` [Example 187, (S)-(3,5-Dichloro-benzyl)-(7-methyl-1-pyridin-4-ylmethyl-8-trifluoromethyl-2,3,4,5-tetrahydro-1H-benzo[b]azepin-5-yl)-(2-methyl-2H-tetrazol-5-yl)-amine], the change in vivo at 30 mg/kg was 124%.
In the case of `Cc1cc2c(cc1C(F)(F)F)N(C1CCOCC1)CCC[C@@H]2N(Cc1cc(C(F)(F)F)cc(C(F)(F)F)c1)c1nnn(C)n1` [Example 139, (S)-(3,5-Bis-trifluoromethyl-benzyl)-[7-methyl-1-(tetrahydro-pyran-4-yl)-8-trifluoromethyl-2,3,4,5-tetrahydro-1H-benzo[b]azepin-5-yl]-(2-methyl-2H-tetrazol-5-yl)-amine] it was 130%.
In the case of `Cc1cc2c(cc1C(F)(F)F)N(Cc1nccs1)CCC[C@@H]2N(Cc1cc(C(F)(F)F)cc(C(F)(F)F)c1)c1nnn(CCN)n1` [Example 129, (S)-[2-(2-Amino-ethyl)-2H-tetrazol-5-yl]-(3,5-bis-trifluoromethyl-benzyl)-(7-methyl-1-thiazol-2-ylmethyl-8-trifluoromethyl-2,3,4,5-tetrahydro-1H-benzo[b]azepin-5-yl)-amine] it was 92%.

The record behind these values is patent US7786108B2, “Compounds and method for treating dyslipidemia” (Eli Lilly and Company, priority 2004, dated 2010).
